The source made the active and inactive calls. The rule behind the calls is not given here.
Tests used:
[1] = molecular target: T1, Protein-S-isoprenylcysteine O-methyltransferase (Homo sapiens, UniProt O60725); experiment: Inhibition of human ICMT at 10 uM by vapor diffusion assay
[2] = molecular target: T1, Protein-S-isoprenylcysteine O-methyltransferase; experiment: Substrate activity at human ICMT by vapor diffusion assay
[3] = molecular target: T1, Protein-S-isoprenylcysteine O-methyltransferase; experiment: Inhibition of human ICMT at 25 uM by vapor diffusion assay
[4] = molecular target: T1, Protein-S-isoprenylcysteine O-methyltransferase; experiment: Inhibition of human ICMT by vapor diffusion assay

T1 sequence (O60725 whole entry, the tested form may be a part): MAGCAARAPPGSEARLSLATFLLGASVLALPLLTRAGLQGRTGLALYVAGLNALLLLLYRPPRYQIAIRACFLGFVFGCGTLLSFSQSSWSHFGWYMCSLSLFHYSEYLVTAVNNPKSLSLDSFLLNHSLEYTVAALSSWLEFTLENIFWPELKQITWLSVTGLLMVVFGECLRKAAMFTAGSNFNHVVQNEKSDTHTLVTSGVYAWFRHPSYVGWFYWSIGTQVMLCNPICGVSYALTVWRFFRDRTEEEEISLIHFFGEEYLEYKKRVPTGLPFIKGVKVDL

`CC(=O)N[C@@H](CSC/C=C(/Cc1ccc2c(c1)Cc1ccccc1-2)c1ccccc1)C(=O)O` gave an inhibition [1] of 25.3%.

In the case of `CC(C)=CCC/C(C)=C/CC/C(C)=C/Cc1cn(C[C@H](NC(=O)c2ccccc2-c2ccccc2)C(=O)O)nn1`, the inhibition [1] is reported as 17% and the Activity [2] is reported as “inactive”.

`CC(=O)N[C@@H](CSC/C=C(\C)CCCCOc1ccc2ccccc2c1)C(=O)O` was tested, and the inhibition [1] was 22.4%.

In the case of `CCCCCc1ccc(CC/C(C)=C/CSC[C@H](NC(C)=O)C(=O)O)cc1`, the inhibition [1] is reported as 23.1%.

`COc1ccc([N+](=O)[O-])c(C(=O)N[C@@H](Cn2cc(C/C=C(\C)CC/C=C(\C)CCC=C(C)C)nn2)C(=O)O)c1` was tested, and the inhibition [1] was 10.1% and the Activity [2] was “inactive”.

For `CC(C)=CCC/C(C)=C/CC/C(C)=C/Cc1cn(C[C@H](NC(=O)CCS(=O)(=O)c2ccccc2)C(=O)O)nn1`, the inhibition [1] was 22.7% and the Activity [2] was “inactive”.

`CC(=O)N[C@@H](CSC/C=C(/C)CC/C=C(/C)CCC=C(C)C)C(=O)O` was tested, and the inhibition [3] was 100%.

`CC(=O)N[C@@H](CSC/C=C(/Cc1ccc(-c2ccccc2)cc1)c1ccccc1)C(=O)O` was tested, and the inhibition [1] was 26.6%.

Compound `CC(C)=CCC/C(C)=C/CC/C(C)=C/Cc1cn(C[C@H](NC(=O)c2ccccc2Oc2ccccc2)C(=O)O)nn1` has an inhibition [1] of 35.9% and an IC50 [4] of 19.4 µM.

For `CC(=O)N[C@@H](CSC/C=C(\C)COc1ccc(Oc2ccccc2)cc1)C(=O)O`, the inhibition [1] was 15.5%.

`CC(=O)N[C@@H](CSC/C=C(\C)COc1ccc2ccccc2c1)C(=O)O` was tested, and the inhibition [1] was 14.5%.

Compound `CCCCCCc1ccc(CC/C(C)=C/CSC[C@H](NC(C)=O)C(=O)O)cc1` has an inhibition [1] of 18.8%.

Compound `CC(=O)N[C@@H](CSC/C=C(/Cc1ccccc1)c1ccccc1)C(=O)O` has an inhibition [1] of 15.7%.

For `CC(=O)N[C@@H](Cn1cc(C/C=C(\C)CC/C=C(\C)CCC=C(C)C)nn1)C(=O)O`, the inhibition [1] was 19.5% and the Activity [2] was “inactive”.

`CC(=O)N[C@@H](CSC/C=C(\C)CCCCOc1ccc(Oc2ccccc2)cc1)C(=O)O` was tested, and the inhibition [1] was 19.4%.

`CC(=O)N[C@@H](CSC/C=C(\C)COc1ccc(Cc2ccccc2)cc1)C(=O)O` was tested, and the inhibition [1] was 9.8%.

`CCCCCCCCc1ccc(CC/C(C)=C/CSC[C@H](NC(C)=O)C(=O)O)cc1` showed an inhibition [1] of 31.1% and an IC50 [4] of 34.6 µM.

Work on `CCCc1ccc(CC/C(C)=C/CSC[C@H](NC(C)=O)C(=O)O)cc1` yielded an inhibition [1] of 20.7%.

Source: ChEMBL document CHEMBL1828533, “Lipid and sulfur substituted prenylcysteine analogs as human Icmt inhibitors” (Bioorg Med Chem Lett, 2011)
